Here are results for one compound from PMC10636063, “Progesterone activation of β1-containing BK channels involves two binding sites” (Nature Communications, 2023).

Where “and” joins values, the source holds several entries; their conditions need not be identical. Equal entries are not always repeated.

The target of experiment [1] is T1, β1Y32F (Rattus norvegicus, UniProt P97678, Y32F).
T1 construct: FLAG (DYKDDDDK); made in house; host or cells: CHO cells, transient transfection, anti-flag immunoprecipitation
The experiment is described as follows: Thermal unfolding (MST) of β1Y32F. The experiment is classed as binding. The source says:
(§1) BK channel-forming slo1 cDNA (cbv1 isoform; AY330293) was cloned from rat cerebral artery SM cells, and inserted into pcDNA3.1 vector as described. BK β1 cDNA (KCNMB1 product; NP_011452; FJ154955) were isolated from rat cerebral artery SM cells and cloned as described. β4 cDNA (KCNMB4; NP_055320; AY028605) were generously provided by Dr. Ligia Toro. CHO cells were transiently transfected with cbv1 ± β1-, or β4-carrying pcDNA3.1 using X-tremeGENE HP (Sigma-Aldrich). Mutations to β1/4 cDNAs were conducted by Genscript, with sequences being confirmed to be >99% identical to KCNMB1 product; NP_011452 or β4 KCNMB4; NP_055320; respectively. β1/4 and mutant constructs were flag-tagged (DYKDDDDK-tag) by Genscript services for subsequent immunoprecipitation and use in microscale thermophoresis studies.
Wt β1, wt β4 and mutant constructs were purified by immunoprecipitation using Dynabeads Protein G Kit (10007D by Invitrogen) and following the manufacturer’s instructions. […] The unfolding profile of a protein is a plot of its fluorescence signal against temperature. […] During the heating process, fluorescence is recorded at 330 and 350 nm. The resulting fluorescence ratio change is then analyzed for onset and inflection points. The temperature of onset and inflection is determined using built-in analysis function in Nanotemper PR.therm-control software. […]

For experiment [2], the target named is T2, cbv1+β1W163I (Rattus norvegicus, UniProt P97678, W163I).
T2 construct: made in house; host or cells: CHO cells, transient transfection; sucrose-gradient membrane preparation
The experiment is described as follows: Channel activity (NPo) in POPE/POPS bilayers, cbv1+β1W163I. The format is biochemical. The note with it: for normalized NPo, time course Fig 2E: W163I PROG.
From the text: as §1
Proteins for electrophysiological recordings in artificial lipid bilayers remained untagged. Cells were transiently transfected as described above, pelleted and re-suspended on ice in 10 ml of buffer solution of the following composition (mM): 30 KCl, 2 MgCl2, 10 HEPES, 5 EGTA; pH 7.2. A membrane preparation was obtained using a sucrose gradient as described. Aliquots were stored at −80 °C. BK channel-mediated ionic current was recorded in planar lipid bilayers consisting of a POPE:POPS 3:1 (w/w) mixture. Lipid mixtures were dried under N2 and re-suspended in 25 mg/ml of n-decane BK currents following incorporation into horizontal bilayers at 300/30 mM cis/trans gradient as detailed elsewhere. Ion currents were obtained during a 10-min gap-free recording at 0 mV in the presence of 0.01, 10 μM PROG, 10 μM PROG-oxime, or vehicle control (dimethyl sulfoxide; DMSO). Currents were obtained in gap-free mode using a Warner BC-525D amplifier, low pass-filtered at 1 kHz and sampled at 5 kHz with Digidata 1550B/pCLAMP 11 (Molecular Devices). For comparison with previous data from us[16],[17],[45]–[47], studies were conducted at 20–22 °C. PROG stock, oxime stock or vehicle control (DMSO) was added to the bilayer cis chamber to reach final concentrations (0.01–10 µM), with all compounds being dissolved with the same concentration of DMSO (0.1%); n = 5–10 for each group.
Patch-clamp and bilayer data were analyzed using Clampfit 10.7 software (Molecular Devices). NPo was used as an index of channel steady-state activity where N = number of channels in the patch (defined as a maximal number of opening levels at Po≤1) and Po=single channel open probability. Drug-induced NPo changes were determined by comparing baseline NPo (i.e., NPo with the patch/cell perfused with bath solution) to the NPo from the same patch/cell exposed to the agent under study (DMSO/PROG/oxime) dissolved in bath solution. NPo and mean open time values were automatically calculated using Clampfit 10.7, the latter using a 50% threshold detection event.

In experiment [3] the test system is MCA branches (C57BL/6J). The experiment is described as follows: EtOH-induced cerebrovascular constriction in vivo (cranial window). The note with it: 10 µM PROG + 50 mM EtOH infused. The arrangement: species or system mouse. How it is done: Eight-12 week-old male and female C57BL/6J mice were anesthetized with a mixture of xylazine/ketamine (12/100 mg per kg) and kept anesthetized for the duration of the experiment with subsequent ketamine doses (50 mg/kg of weight) as needed. A catheter was inserted into the carotid artery so that the infusion went straight to the brain rather than towards the thoracic cavity. An area of the skull was cleared of tissue and thinned to expose the branching arteries originating from the MCA on the side the catheter was inserted, above the zygomatic arch, between the ear and eye of the skull[19],[34]. The exposed arteries branching out from the MCA were monitored using a Leica MC170 HD microscope with a mounted camera (Leica M125 C) connected to a computer monitor. Drugs were diluted to their final concentration in sodium saline (0.9% NaCl) and administered via catheter at 0.1 ml/25 g of weight. Cranial window images before and after drug administration were acquired every 60 seconds for subsequent analysis.

T2 sequence (P97678 whole entry W163I): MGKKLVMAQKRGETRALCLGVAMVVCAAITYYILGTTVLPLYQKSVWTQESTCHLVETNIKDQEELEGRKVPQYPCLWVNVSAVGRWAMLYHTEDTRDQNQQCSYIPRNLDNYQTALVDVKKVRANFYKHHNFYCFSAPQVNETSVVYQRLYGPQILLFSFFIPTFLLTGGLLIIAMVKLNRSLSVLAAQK
T2 sequence (Q62976 1-1148 isoform Q62976-2 partner): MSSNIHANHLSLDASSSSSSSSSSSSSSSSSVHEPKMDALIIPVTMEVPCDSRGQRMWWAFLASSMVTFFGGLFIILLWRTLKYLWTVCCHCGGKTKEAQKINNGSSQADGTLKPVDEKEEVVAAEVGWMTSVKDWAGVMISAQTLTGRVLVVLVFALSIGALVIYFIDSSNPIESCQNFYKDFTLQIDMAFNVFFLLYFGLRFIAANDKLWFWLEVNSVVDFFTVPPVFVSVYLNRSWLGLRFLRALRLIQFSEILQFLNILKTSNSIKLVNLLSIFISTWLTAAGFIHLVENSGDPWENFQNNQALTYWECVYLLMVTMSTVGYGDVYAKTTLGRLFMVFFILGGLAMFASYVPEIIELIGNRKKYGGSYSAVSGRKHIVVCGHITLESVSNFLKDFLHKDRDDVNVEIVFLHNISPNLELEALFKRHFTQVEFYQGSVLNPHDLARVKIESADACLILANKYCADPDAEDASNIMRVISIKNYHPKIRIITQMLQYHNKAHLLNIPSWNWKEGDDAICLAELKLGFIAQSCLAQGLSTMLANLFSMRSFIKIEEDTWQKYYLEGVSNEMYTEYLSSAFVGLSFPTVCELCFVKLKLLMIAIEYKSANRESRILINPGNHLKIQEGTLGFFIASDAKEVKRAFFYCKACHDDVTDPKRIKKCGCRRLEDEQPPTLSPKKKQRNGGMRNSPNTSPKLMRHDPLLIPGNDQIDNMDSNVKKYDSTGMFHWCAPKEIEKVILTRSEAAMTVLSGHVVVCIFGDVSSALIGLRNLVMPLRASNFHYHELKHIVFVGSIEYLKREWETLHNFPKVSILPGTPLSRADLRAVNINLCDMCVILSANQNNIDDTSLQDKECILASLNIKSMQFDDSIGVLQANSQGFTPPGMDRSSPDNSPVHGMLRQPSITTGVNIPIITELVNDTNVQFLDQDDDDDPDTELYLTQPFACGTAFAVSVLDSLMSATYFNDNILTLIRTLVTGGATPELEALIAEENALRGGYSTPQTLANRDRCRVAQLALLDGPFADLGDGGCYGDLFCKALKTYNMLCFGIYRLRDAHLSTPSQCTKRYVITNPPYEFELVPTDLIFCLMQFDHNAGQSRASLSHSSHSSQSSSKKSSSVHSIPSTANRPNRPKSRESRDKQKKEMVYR
T1 sequence (P97678 whole entry Y32F): as the sequence (P97678 whole entry W163I) above, with Y32F, I163W counted along it

For the compound `CC(=O)[C@H]1CC[C@H]2[C@@H]3CCC4=CC(=O)CC[C@]4(C)[C@H]3CC[C@]12C` [PROG, Progesterone], the binding entry in experiment [1] is recorded as “still bind PROG”. Further, the “action on channel activity (NPo)” value in experiment [2] (10 µM, vs DMSO) is reported as “effectively abolished PROG action”. Also, the “normalized NPo, time course Fig 2E” value in experiment [2] (time 1 min (normalisation reference)) is 1; in experiment [2] (time 2 min) it was 0.8408 and 0.8822 and 1.039 and 0.6048 and 0.9835; in experiment [2] (time 6 min) it was 0.9156 and 1.236 and 1.01 and 0.7339 and 0.9865; in experiment [2] (time 7 min), 1.033 and 1.222 and 0.6583 and 1.166; in experiment [2] (time 8 min) it was 0.9156 and 0.8317 and 0.9282 and 1.117; in experiment [2] (time 9 min), 1.0966 and 0.7071 and 0.5738 and 1.067. The “normalized NPo, time course Fig 2E” value in experiment [2] (time 10 min) is 1.291 and 0.8215 and 0.6728 and 1.157. For the same compound, the “effect on EtOH-induced cerebrovascular constriction” value in experiment [3] is given as “still protected against EtOH-induced cerebrovascular constriction”.
